Experimental data as given in patent publication US20040039039A1, “Fungicidal mixtures” (priority 2003, published 2004).

Tested on: Plasmopara viticola
Assay: Protective activity against Peronospora in grapevines caused by Plasmopara viticola
Assay type: in vivo
Details: individual active compound, potted vines
Method: The active compounds, separately or together, were formulated as a 10% emulsion in a mixture of 63% by weight of cyclohexanone and 27% by weight of emulsifier, and diluted with water to the desired concentration.
Evaluation was carried out by determining the infected leaf areas in percent. These percentages were converted into efficacies. The efficacy (W) was calculated as follows using Abbot's formula: […]
α corresponds to the fungal infection of the treated plants in % and β corresponds to the fungal infection of the untreated (control) plants in % An efficacy of 0 means that the infection level of the treated plants corresponds to that of the untreated control plants; an efficacy of 100 means that the treated plants were not infected.
The expected efficacies of the mixtures of the active compounds were determined using Colby's formula [R. S. Colby, Weeds 15, 20-22 (1967)] and compared with the observed efficacies.
Colby's formula: E=x+y−x·y/100
E expected efficacy, expressed in % of the untreated control, when using the mixture of the active compounds A and B at the concentrations a and b x efficacy, expressed in % of the untreated control, when using active compound A at a concentration a y efficacy, expressed in % of the untreated control, when using active compound B at a concentration b.
Protective Activity Against Peronospora in Grapevines Caused by Plasmopara viticola Leaves of potted vines of the cultivar “Müiller-Thurgau” were sprayed to runoff point with an aqueous preparation of active compound which had been prepared using a stock solution comprising 10% of active compound, 85% of cyclohexanone and 5% of emulsifier. The next day, the undersides of the leaves were inoculated with an aqueous zoospore suspension of Plasmopara viticola. The vines were then placed firstly for 48 hours in a water-vapor-saturated chamber at 24° C. and then for 5 days in a greenhouse at 20-30° C. After this period of time, the plants were again placed in a moist chamber for 16 hours to accelerate the sporangiophore eruption. The extent to which the undersides of the leaves had been infected was then determined visually.

Cc1ccc(-c2c(Cl)nc(C#N)n2S(=O)(=O)N(C)C)cc1 [Ia, cyazofamid]
Efficacy in % of the untreated control (0.05 ppm in the spray liquor): 56%
Efficacy in % of the untreated control (0.1 ppm in the spray liquor): 78%
Efficacy in % of the untreated control (0.2 ppm in the spray liquor): 89%

manganese ethylenebis(dithiocarbamate) (zinc complex) [IIa]
Efficacy in % of the untreated control (5 ppm in the spray liquor): 11%
Efficacy in % of the untreated control (10 ppm in the spray liquor): 72%

zinc ammoniate ethylenebis(dithiocarbamate) [IIc]
Efficacy in % of the untreated control (5 ppm in the spray liquor): 0%
Efficacy in % of the untreated control (10 ppm in the spray liquor): 11%
